Reference: ChEMBL document CHEMBL3352497, “Design and optimization of novel 4-(2-fluorophenoxy)quinoline derivatives bearing a hydrazone moiety as c-Met kinase inhibitors” (Eur J Med Chem, 2014)

How the values were obtained:
[1] = Antiproliferative activity against human U87MG cells assessed as inhibition of cell growth after 72 hrs by MTT assay; format: functional, cell-based, U-87MG ATCC; conditions: U-87 MG
A549 = experiment: cells; conditions: Homo sapiens, A549, 72 h
Description: Antiproliferative activity against human A549 cells assessed as inhibition of cell growth after 72 hrs by MTT assay

HT-29 = experiment: cells; conditions: Homo sapiens, HT-29, 72 h
Description: Antiproliferative activity against human HT-29 cells assessed as inhibition of cell growth after 72 hrs by MTT assay

cells = conditions: Homo sapiens, NCI-H460, 72 h
[2] = Antiproliferative activity against human MKN45 cells assessed as inhibition of cell growth after 72 hrs by MTT assay; format: functional, cell-based; conditions: MKN-45, 72 h
[3] = target: Vascular endothelial growth factor receptor 2 (Homo sapiens, UniProt P35968); experiment: Inhibition of KDR (unknown origin)
Sequence of Vascular endothelial growth factor receptor 2 (P35968 whole entry): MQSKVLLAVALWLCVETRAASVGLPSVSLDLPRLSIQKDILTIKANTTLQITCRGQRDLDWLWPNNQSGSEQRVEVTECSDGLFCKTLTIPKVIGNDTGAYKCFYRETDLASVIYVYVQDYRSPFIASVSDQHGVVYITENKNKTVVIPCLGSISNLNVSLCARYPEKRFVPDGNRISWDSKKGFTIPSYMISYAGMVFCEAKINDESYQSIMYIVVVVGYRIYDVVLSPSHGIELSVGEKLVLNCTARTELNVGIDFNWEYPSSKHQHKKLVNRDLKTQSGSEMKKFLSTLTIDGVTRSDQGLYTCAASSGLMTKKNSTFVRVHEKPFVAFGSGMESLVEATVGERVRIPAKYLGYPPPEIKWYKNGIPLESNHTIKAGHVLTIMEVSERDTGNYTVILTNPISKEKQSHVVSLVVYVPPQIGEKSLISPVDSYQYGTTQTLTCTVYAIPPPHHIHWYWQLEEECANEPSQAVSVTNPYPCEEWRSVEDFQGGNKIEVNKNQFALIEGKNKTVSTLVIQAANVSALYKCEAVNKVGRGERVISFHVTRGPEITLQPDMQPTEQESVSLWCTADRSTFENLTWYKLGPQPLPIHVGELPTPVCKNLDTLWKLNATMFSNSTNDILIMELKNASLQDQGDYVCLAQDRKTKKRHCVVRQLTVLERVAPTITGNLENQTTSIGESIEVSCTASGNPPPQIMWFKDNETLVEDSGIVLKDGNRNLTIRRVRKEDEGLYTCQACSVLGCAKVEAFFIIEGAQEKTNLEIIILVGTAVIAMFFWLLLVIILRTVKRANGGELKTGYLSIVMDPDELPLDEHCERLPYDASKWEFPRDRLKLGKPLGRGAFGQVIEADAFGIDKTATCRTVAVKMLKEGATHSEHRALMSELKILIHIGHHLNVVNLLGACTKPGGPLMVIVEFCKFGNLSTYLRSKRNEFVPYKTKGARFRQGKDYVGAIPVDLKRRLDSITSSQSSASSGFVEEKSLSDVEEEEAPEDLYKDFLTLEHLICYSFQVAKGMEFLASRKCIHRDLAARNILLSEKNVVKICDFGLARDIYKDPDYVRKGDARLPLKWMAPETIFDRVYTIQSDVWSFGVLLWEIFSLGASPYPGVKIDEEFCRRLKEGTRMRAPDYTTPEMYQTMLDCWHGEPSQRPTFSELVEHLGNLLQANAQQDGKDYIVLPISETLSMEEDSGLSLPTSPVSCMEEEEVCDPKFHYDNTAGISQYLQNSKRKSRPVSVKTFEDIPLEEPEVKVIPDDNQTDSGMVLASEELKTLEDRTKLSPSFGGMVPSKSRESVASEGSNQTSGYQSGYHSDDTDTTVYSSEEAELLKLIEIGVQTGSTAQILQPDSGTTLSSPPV

[4] = target: Macrophage-stimulating protein receptor (Homo sapiens, UniProt Q04912); experiment: Inhibition of RON (unknown origin)
[5] = target: Hepatocyte growth factor receptor (Homo sapiens, UniProt P08581); experiment: Inhibition of c-Met (unknown origin) using poly (Glu, Tyr) 4:1 substrate by HTRF assay
Sequence of Hepatocyte growth factor receptor (P08581 whole entry): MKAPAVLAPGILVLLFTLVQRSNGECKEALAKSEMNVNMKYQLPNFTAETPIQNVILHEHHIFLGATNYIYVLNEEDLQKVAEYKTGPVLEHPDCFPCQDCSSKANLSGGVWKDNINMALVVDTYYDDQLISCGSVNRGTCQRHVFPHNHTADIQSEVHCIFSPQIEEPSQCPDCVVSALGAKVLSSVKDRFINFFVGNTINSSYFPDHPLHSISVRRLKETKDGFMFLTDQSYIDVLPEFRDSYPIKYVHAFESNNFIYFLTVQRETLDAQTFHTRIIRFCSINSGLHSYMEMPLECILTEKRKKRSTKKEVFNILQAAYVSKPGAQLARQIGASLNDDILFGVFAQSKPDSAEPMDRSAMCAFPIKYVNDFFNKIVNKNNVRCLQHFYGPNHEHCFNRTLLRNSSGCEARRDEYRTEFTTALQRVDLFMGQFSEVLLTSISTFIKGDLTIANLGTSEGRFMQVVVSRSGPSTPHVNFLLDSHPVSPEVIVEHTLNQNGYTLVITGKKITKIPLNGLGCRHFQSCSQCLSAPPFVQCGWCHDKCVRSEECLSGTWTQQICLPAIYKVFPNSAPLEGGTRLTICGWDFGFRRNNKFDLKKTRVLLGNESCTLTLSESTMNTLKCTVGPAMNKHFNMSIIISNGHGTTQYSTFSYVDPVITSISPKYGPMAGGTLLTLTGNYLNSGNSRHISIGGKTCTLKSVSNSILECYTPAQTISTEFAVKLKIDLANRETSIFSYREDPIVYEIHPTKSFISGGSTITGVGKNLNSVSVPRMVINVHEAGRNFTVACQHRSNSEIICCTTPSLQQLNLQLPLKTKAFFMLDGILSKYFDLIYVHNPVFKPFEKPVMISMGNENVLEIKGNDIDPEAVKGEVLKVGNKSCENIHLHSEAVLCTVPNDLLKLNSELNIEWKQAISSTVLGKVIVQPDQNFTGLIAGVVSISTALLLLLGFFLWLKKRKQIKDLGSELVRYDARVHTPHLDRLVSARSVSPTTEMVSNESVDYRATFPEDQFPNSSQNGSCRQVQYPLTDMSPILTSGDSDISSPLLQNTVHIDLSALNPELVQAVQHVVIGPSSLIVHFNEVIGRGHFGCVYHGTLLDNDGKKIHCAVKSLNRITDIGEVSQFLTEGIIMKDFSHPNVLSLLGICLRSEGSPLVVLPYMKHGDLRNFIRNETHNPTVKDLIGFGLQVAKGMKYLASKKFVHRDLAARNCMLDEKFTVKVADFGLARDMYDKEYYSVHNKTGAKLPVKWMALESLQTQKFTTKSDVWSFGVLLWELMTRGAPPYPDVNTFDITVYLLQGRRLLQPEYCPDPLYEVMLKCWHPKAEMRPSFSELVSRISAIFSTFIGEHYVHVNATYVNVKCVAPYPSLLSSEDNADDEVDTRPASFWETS

[6] = target: Epidermal growth factor receptor (Homo sapiens, UniProt P00533); experiment: Inhibition of EGFR (unknown origin)
Sequence of Epidermal growth factor receptor (P00533 whole entry): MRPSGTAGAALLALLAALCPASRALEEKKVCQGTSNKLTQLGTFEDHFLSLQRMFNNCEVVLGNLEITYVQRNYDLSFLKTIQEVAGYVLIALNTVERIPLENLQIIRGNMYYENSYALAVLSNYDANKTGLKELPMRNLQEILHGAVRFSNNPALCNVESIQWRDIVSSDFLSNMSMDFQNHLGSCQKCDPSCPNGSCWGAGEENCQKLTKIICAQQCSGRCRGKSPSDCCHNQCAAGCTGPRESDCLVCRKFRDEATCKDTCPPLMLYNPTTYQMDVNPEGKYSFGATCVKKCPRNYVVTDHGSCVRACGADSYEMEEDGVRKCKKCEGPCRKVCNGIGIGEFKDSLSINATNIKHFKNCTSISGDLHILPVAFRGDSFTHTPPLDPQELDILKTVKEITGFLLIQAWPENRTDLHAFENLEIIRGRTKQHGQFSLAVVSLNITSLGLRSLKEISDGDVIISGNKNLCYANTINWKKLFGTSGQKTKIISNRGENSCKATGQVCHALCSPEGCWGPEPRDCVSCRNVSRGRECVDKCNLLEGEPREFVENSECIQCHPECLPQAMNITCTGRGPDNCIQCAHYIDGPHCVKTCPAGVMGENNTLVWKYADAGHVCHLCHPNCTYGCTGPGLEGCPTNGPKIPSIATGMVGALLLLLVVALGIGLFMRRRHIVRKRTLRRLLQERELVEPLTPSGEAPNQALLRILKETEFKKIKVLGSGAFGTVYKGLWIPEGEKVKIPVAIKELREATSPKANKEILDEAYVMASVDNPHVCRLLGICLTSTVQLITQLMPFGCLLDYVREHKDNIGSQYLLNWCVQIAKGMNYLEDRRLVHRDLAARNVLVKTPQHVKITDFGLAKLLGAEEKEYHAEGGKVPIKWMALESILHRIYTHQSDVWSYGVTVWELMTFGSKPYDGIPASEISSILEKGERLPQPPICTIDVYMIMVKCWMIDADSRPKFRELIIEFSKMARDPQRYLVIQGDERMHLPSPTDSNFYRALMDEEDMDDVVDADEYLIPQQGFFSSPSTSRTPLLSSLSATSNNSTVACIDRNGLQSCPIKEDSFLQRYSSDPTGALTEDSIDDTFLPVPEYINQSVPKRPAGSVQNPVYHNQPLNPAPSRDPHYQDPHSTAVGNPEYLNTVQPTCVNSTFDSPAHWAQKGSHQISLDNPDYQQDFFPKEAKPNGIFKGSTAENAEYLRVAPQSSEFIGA

[7] = target: T1, Receptor-type tyrosine-protein kinase FLT3 (Homo sapiens, UniProt P36888); experiment: Inhibition of FLT3 (unknown origin)
T1 sequence (P36888 whole entry): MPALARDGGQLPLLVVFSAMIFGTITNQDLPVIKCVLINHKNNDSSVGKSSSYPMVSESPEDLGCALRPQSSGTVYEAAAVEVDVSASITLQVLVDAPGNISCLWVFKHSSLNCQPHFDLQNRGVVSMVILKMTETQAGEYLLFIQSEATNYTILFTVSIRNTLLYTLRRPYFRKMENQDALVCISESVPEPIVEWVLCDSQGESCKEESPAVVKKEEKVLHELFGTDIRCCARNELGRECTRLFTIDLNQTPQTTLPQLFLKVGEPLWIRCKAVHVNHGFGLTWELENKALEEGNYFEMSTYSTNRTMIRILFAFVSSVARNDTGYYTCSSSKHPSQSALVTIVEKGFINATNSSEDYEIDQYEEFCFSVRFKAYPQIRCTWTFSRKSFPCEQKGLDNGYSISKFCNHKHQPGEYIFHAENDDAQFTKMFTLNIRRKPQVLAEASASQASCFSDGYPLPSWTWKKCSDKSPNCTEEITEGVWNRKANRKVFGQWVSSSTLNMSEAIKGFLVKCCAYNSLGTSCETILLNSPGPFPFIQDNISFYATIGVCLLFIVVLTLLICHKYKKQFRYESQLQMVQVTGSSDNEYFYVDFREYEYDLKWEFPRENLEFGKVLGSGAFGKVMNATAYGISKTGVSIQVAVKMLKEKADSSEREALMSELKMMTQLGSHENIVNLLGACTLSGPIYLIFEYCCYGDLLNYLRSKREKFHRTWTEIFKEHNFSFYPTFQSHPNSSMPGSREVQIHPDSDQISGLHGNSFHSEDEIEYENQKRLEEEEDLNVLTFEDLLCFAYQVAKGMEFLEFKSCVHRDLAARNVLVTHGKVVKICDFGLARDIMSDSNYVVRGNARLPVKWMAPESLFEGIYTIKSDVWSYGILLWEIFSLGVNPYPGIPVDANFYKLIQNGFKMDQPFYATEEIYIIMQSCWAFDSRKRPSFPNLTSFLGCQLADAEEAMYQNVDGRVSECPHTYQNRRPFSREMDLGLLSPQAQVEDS

[8] = target: Mast/stem cell growth factor receptor Kit (Homo sapiens, UniProt P10721); experiment: Inhibition of c-KIT (unknown origin)
Sequence of Mast/stem cell growth factor receptor Kit (P10721 whole entry): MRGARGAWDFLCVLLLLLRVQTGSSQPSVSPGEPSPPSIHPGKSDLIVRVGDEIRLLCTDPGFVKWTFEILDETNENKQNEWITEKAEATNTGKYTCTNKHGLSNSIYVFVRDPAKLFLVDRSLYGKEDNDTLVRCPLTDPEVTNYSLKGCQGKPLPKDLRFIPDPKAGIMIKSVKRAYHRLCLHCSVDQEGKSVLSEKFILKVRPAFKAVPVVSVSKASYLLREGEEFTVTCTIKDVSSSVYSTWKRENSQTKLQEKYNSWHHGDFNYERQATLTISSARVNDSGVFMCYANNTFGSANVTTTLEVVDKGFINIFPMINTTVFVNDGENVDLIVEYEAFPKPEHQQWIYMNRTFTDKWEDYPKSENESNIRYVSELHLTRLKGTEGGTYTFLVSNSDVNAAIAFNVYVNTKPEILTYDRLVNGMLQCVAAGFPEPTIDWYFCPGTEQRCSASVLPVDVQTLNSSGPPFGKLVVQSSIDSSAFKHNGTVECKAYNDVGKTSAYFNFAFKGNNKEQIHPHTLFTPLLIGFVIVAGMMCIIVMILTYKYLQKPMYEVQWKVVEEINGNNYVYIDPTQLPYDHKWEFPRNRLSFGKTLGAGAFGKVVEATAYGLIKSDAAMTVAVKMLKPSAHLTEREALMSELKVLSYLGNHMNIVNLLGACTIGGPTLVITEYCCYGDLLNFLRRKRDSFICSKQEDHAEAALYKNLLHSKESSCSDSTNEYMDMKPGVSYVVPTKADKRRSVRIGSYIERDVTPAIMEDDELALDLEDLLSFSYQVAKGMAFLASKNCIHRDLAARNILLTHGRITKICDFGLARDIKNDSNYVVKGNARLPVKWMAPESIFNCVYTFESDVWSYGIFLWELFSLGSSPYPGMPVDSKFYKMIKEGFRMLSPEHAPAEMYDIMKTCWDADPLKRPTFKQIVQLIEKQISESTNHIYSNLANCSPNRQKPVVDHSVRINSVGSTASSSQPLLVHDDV

Row | Structure (SMILES) | IC50 (A549) | IC50 (HT-29) | IC50 (cells) | IC50 [3] | IC50 [4] | IC50 [5] | IC50 [6] | IC50 [7] | IC50 [8] | IC50 [1] | IC50 [2]
1 | COc1cc2c(Oc3ccc(CC(=O)N/N=C(/C)c4ccccc4)cc3F)ccnc2cc1OCCCN1CCOCC1 | 350 nM | 540 nM | 190 nM | – | – | – | – | – | – | 610 nM | 970 nM
2 | COc1cc2c(Oc3ccc(CC(=O)N/N=C(/C)c4ccccc4)cc3F)ccnc2cc1OCCCN1CCCCC1 | 520 nM | 970 nM | 340 nM | – | – | – | – | – | – | 1380 nM | 1990 nM
3 | COc1cc2c(Oc3ccc(CC(=O)N/N=C(/C)c4ccccc4)cc3F)ccnc2cc1OCCCN1CCCC1 | 280 nM | 440 nM | 99 nM | – | – | – | – | – | – | 590 nM | 760 nM
4 | COc1cc2c(Oc3ccc(CC(=O)N/N=C(/C)c4ccccc4)cc3F)ccnc2cc1OCCCN1CCC(C)CC1 | 390 nM | 950 nM | 200 nM | – | – | – | – | – | – | 1480 nM | 2690 nM
5 | COc1cc(/C=N/NC(=O)Cc2ccc(Oc3ccnc4cc(OCCCN5CCOCC5)c(OC)cc34)c(F)c2)ccc1O | 2980 nM | 3940 nM | 1170 nM | – | – | – | – | – | – | 5860 nM | 11200 nM
6 | COc1cc2c(Oc3ccc(CC(=O)N/N=C/c4ccc(O)c(Br)c4)cc3F)ccnc2cc1OCCCN1CCOCC1 | 2540 nM | 3670 nM | 1080 nM | – | – | – | – | – | – | – | –
7 | COc1cc2c(Oc3ccc(CC(=O)N/N=C/C(C)C)cc3F)ccnc2cc1OCCCN1CCOCC1 | 23000 nM | 25200 nM | 7140 nM | – | – | – | – | – | – | – | –
8 | COc1cc2c(Oc3ccc(CC(=O)N/N=C/c4ccco4)cc3F)ccnc2cc1OCCCN1CCOCC1 | 3190 nM | 2780 nM | 880 nM | – | – | – | – | – | – | – | –
9 | COc1cc2c(Oc3ccc(CC(=O)N/N=C/c4ccc[nH]4)cc3F)ccnc2cc1OCCCN1CCOCC1 | 1220 nM | 2360 nM | 760 nM | – | – | – | – | – | – | – | –
10 | COc1cc2c(Oc3ccc(CC(=O)N/N=C/c4cccs4)cc3F)ccnc2cc1OCCCN1CCOCC1 | 390 nM | 960 nM | 280 nM | – | – | – | – | – | – | 1150 nM | 1820 nM
11 | COc1cc2c(Oc3ccc(CC(=O)N/N=C(/C)c4ccc(C(F)(F)F)cc4)cc3F)ccnc2cc1OCCCN1CCCC1 | 96 nM | 190 nM | 46 nM | – | – | – | – | – | – | 370 nM | 420 nM
12 | COc1cc2c(Oc3ccc(CC(=O)N/N=C(/C)c4ccc(C(F)(F)F)cc4)cc3F)ccnc2cc1OCCCN1CCOCC1 | 170 nM | 260 nM | 71 nM | – | – | – | – | – | – | 390 nM | 590 nM
13 | COc1cc2c(Oc3ccc(CC(=O)N/N=C(/C)c4ccc(C(F)(F)F)cc4)cc3F)ccnc2cc1OCCCN1CCCCC1 | 290 nM | 450 nM | 130 nM | – | – | – | – | – | – | 590 nM | 940 nM
14 | COc1cc2c(Oc3ccc(CC(=O)N/N=C(/C)c4ccc(C(F)(F)F)cc4)cc3F)ccnc2cc1OCCCN1CCC(C)CC1 | 220 nM | 360 nM | 96 nM | – | – | – | – | – | – | 510 nM | 840 nM

Further lines, with some results ahead:

Row | IC50 (A549) | IC50 (HT-29) | IC50 (cells) | IC50 [3] | IC50 [4] | IC50 [5] | IC50 [6] | IC50 [7] | IC50 [8] | Structure (SMILES) | IC50 [1] | IC50 [2]
15 | 230 nM | 410 nM | 110 nM | – | – | – | – | – | – | COc1cc2c(Oc3ccc(CC(=O)N/N=C/c4ccccc4)cc3F)ccnc2cc1OCCCN1CCOCC1 | 480 nM | 820 nM
16 | 400 nM | 800 nM | 220 nM | – | – | – | – | – | – | COc1cc2c(Oc3ccc(CC(=O)N/N=C/c4ccccc4)cc3F)ccnc2cc1OCCCN1CCCCC1 | 1020 nM | 1580 nM
17 | 140 nM | 340 nM | 83 nM | – | – | – | – | – | – | COc1cc2c(Oc3ccc(CC(=O)N/N=C/c4ccccc4)cc3F)ccnc2cc1OCCCN1CCCC1 | 420 nM | 720 nM
18 | 340 nM | 810 nM | 170 nM | – | – | – | – | – | – | COc1cc2c(Oc3ccc(CC(=O)N/N=C/c4ccccc4)cc3F)ccnc2cc1OCCCN1CCC(C)CC1 | 970 nM | 2120 nM
19 | 560 nM | 1300 nM | 310 nM | – | – | – | – | – | – | COc1cc2c(Oc3ccc(CC(=O)N/N=C/c4ccc(O)cc4)cc3F)ccnc2cc1OCCCN1CCOCC1 | 1700 nM | 3220 nM
20 | 960 nM | 1720 nM | 450 nM | – | – | – | – | – | – | COc1ccc(/C=N/NC(=O)Cc2ccc(Oc3ccnc4cc(OCCCN5CCOCC5)c(OC)cc34)c(F)c2)cc1 | 2650 nM | 3910 nM
21 | 250 nM | 480 nM | 100 nM | – | – | – | – | – | – | COc1cc2c(Oc3ccc(CC(=O)N/N=C/c4ccc(S(C)(=O)=O)cc4)cc3F)ccnc2cc1OCCCN1CCOCC1 | 680 nM | 1140 nM
22 | 200 nM | 380 nM | 81 nM | – | – | – | – | – | – | COc1cc2c(Oc3ccc(CC(=O)N/N=C/c4ccc(OC(F)(F)F)cc4)cc3F)ccnc2cc1OCCCN1CCOCC1 | 450 nM | 690 nM
23 | 110 nM | 220 nM | 55 nM | – | – | – | – | – | – | COc1cc2c(Oc3ccc(CC(=O)N/N=C/c4ccc(C(F)(F)F)cc4)cc3F)ccnc2cc1OCCCN1CCOCC1 | 300 nM | 490 nM
24 | 140 nM | 260 nM | 67 nM | – | – | – | – | – | – | COc1cc2c(Oc3ccc(CC(=O)N/N=C/c4ccc(F)cc4)cc3F)ccnc2cc1OCCCN1CCCC1 | 420 nM | 560 nM
25 | 170 nM | 280 nM | 75 nM | – | – | – | – | – | – | COc1cc2c(Oc3ccc(CC(=O)N/N=C/c4ccc(Cl)cc4)cc3F)ccnc2cc1OCCCN1CCCC1 | 400 nM | 620 nM
26 | 320 nM | 480 nM | 82 nM | – | – | – | – | – | – | COc1cc2c(Oc3ccc(CC(=O)N/N=C/c4ccccc4F)cc3F)ccnc2cc1OCCCN1CCCC1 | 810 nM | 980 nM
27 | 130 nM | 200 nM | 58 nM | – | – | – | – | – | – | COc1cc2c(Oc3ccc(CC(=O)N/N=C/c4ccc(OC(F)(F)F)cc4)cc3F)ccnc2cc1OCCCN1CCCC1 | 330 nM | 460 nM
28 | 80 nM | 150 nM | 31 nM | 560 nM | 28.6 nM | 1.86 nM | > 100000 nM | 390 nM | 45 nM | COc1cc2c(Oc3ccc(CC(=O)N/N=C/c4ccc(C(F)(F)F)cc4)cc3F)ccnc2cc1OCCCN1CCCC1 | 290 nM | 370 nM
29 | 160 nM | 320 nM | 94 nM | – | – | – | – | – | – | COc1cc2c(Oc3ccc(CC(=O)N/N=C/c4ccncc4)cc3F)ccnc2cc1OCCCN1CCOCC1 | 500 nM | 790 nM
30 | 170 nM | 280 nM | 72 nM | – | – | – | – | – | – | COc1cc2c(Oc3ccc(CC(=O)N/N=C(/C)c4ccc(F)cc4)cc3F)ccnc2cc1OCCCN1CCCC1 | 350 nM | 580 nM
31 | 190 nM | 290 nM | 83 nM | – | – | – | – | – | – | COc1cc2c(Oc3ccc(CC(=O)N/N=C(/C)c4ccc(Cl)cc4)cc3F)ccnc2cc1OCCCN1CCCC1 | – | –
32 | 410 nM | 780 nM | 180 nM | – | – | – | – | – | – | COc1cc2c(Oc3ccc(CC(=O)N/N=C(/C)c4ccc(O)cc4)cc3F)ccnc2cc1OCCCN1CCCC1 | 1160 nM | 1680 nM
